Bridge positions count the residues as written; N and C are the ends. Peptide text beside a SMILES is read from it.
Columns and labels:
[1] = system: THP-1 cells (β2 integrins); conditions: soluble peptide
Procedure: In FIG. 2(A), phorbol ester-activated THP-1 cells were allowed to bind for 60 min to microtiter wells coated with LLG-C4-GST, GST, or albumin. EDTA was included at a 2.5 mM concentration. The bound cells were determined by the assay measuring cellular phosphatase activity. The data are the means ±SD from triplicate wells.
In FIG. 2(B), THP-1 cells were mixed with each antibody against the β1, β2, β3, αL, αM, or αX integrin subunit as indicated at a concentration of […]. An aliquot of cells was then transferred to wells coated with LLG-C4-GST and incubated for 60 min at 37° C. Following washing the bound cells were determined by the phosphatase assay. The results are the mean % adhesion ±SD of 2–4 independent experiments each done in triplicate wells.
In FIG. 3(A), TBP-1 cells were mixed in suspension with the peptide containing either the C(1–8;3–9) or C(1–9;3–8) disulfide. The final concentrations of the peptides are indicated. Cells were then incubated for 60 min at 37° C. in microtiter wells coated with LLG-C4-GST. After washing the wells, the bound cells were quantitated by the phosphatase assay. The results are the mean ±SD from triplicate wells.
In FIG. 3(B), THP-1 cell binding to LLG-C4-GST was examined in the presence of the C(1–8;3–9), CLLGC (SEQ ID NO: 4) or the CAAGC (SEQ ID NO: 5) peptide. The synthetic peptides were used at the concentrations indicated. Following a 60 min incubation the wells were washed and the bound cells were determined by the phosphatase assay.
Fibrinogen, fibronectin, von Wrlnebrand factor, type IV collagen, GST fusion proteins, Fc fusion proteins or synthetic peptides were coated on microtiter wells at a concentration of 2 μg in 50 μl TBS unless otherwise indicated. A recombinant von Willebrand factor and a capturing antibody to it kindly provided by Drs. J. J. Sixma and Ph. G. de Groot (University Medical Center Utrecht, the Netherlands) were also used. To prepare polymerized peptides, glutaraldehyde was added at a final concentration of 0.25%. The wells were saturated with 5% BSA and then washed five times with PBS. Prior to adhesion assays, cells were treated with 50 nM 40-Phorbol 12,13-dibutyrate or with 200 μM P1 peptide (Kotovuori et al., 1999) in serum-free medium for 30 min at room temperature to activate the integrins. Alternatively, cells were stimulated for 60 min at 37° C. with the phorbol ester (50 nM) and the C(1–8;3–9) and RGD-4C peptides each at a 2.5 μM concentration, after which the peptides were removed by washing with PBS/2.5 mM EDTA. Cells were incubated in the microtiter wells (100 000 cells per well) for 60 min at 37° C. in the absence or presence of competing peptides, antibodies or EDTA. Unbound cells were removed by gently washing with PBS and pressing the plate against paper towels. The bound cells were determined by an assay measuring cellular phosphatase activity. Briefly, 100 μl of 50 mM sodium acetate buffer, pH 5.0, containing 1% Triton X-100 and 6 mg/ml p-nitrophenyl phosphate was added per well and incubated for 1 h at 37° C. The reaction was stopped with 50 μl of 1 M NaOH. The absorbance at 405 nm was read on a microplate reader. Alternatively, the attached cells were stained with Crystal Violet essentially as described (Mould et al., 1995).

[2] = system: THP-1 cells on type IV collagen; assay: THP-1 cell adhesion on type IV collagen; type: cell-based; conditions: phorbol ester-activated THP-1; read-out: IC50, inhibition of THP-1 adhesion on type IV collagen
Procedure: (§1) In FIG. 5(B), TRP-1 cells were allowed to bind to microtiter wells coated with von Willebrand factor, type IV collagen, or fibronectin. The C(1–8;3–9) peptide was included as a competitor in the concentrations described. The bound cells were determined by the phosphatase assay. The data are the mean ±SD of triplicate wells and were similar in four other experiments.
(§2) Fibrinogen, fibronectin, von Wrlnebrand factor, type IV collagen, GST fusion proteins, Fc fusion proteins or synthetic peptides were coated on microtiter wells at a concentration of 2 μg in 50 μl TBS unless otherwise indicated. A recombinant von Willebrand factor and a capturing antibody to it kindly provided by Drs. J. J. Sixma and Ph. G. de Groot (University Medical Center Utrecht, the Netherlands) were also used. To prepare polymerized peptides, glutaraldehyde was added at a final concentration of 0.25%. The wells were saturated with 5% BSA and then washed five times with PBS. Prior to adhesion assays, cells were treated with 50 nM 40-Phorbol 12,13-dibutyrate or with 200 μM P1 peptide (Kotovuori et al., 1999) in serum-free medium for 30 min at room temperature to activate the integrins. […] The bound cells were determined by an assay measuring cellular phosphatase activity. […] The absorbance at 405 nm was read on a microplate reader. […]

[3] = Water solubility of the peptides; type: physicochemical; conditions: compared with the C(1–9;3–8) peptide
[4] = system: αLβ2 integrin-mediated binding of Jurkat cells to ICAM-1-Fc; assay: Jurkat cell adhesion to ICAM-1-Fc; type: cell-based
Procedure: In FIG. 4(A), Jurkat cells were allowed to attach to immobilized ICAM-1-Fc in microtiter wells in the absence or presence of LLG-C4 peptides. Following a 45 min incubation, the unbound cells were removed by immersing the microtiter plate upside down on a decanter containing PBS, and the attached cells were stained with Crystal Violet.
as §2

[5] = system: THP-1 cells on von Willebrand factor; type: cell-based; conditions: phorbol ester-activated THP-1; read-out: IC50, inhibition of THP-1 cell binding to von Willebrand factor
Procedure: In FIG. 5(A), THP-1 cell binding to von Wirebrand factor was examined in the presence of antibodies against the β2 (7E4), αvβ3 (LM609) or αIIbβ3 (P2) integrins. Following a 60 min incubation in von Willebrand factor-coated wells, the bound cells were determined. The data are the mean ±SD of triplicate wells. The experiment was repeated three times.
as §1
as §2, with “integrins. Alternatively, cells were stimulated for 60 min at 37° C. with the phorbol ester (50 nM) and the C(1–8;3–9) and RGD-4C peptides each at a 2.5 μM concentration, after which the peptides were removed by washing with PBS/2.5 mM EDTA. Cells were incubated in the microtiter wells (100 000 cells per well) for 60 min at 37° C. in the absence or presence of competing peptides, antibodies or EDTA.” for “integrins.”

[6] = system: THP-1 cells on fibrinogen; assay: THP-1 cell adhesion to fibrinogen; type: cell-based
Procedure: Following a 60 min incubation the bound cells were determined by the phosphatase assay. The results are the mean ±SD of triplicate wells and were similar in two other experiments.
In FIG. 6(B), to activate integrins, THP-1 cells were stimulated both with phorbol ester (50 nM) and the RGD-4C and C(1–8;3–9) peptides (each 2.5 μM for 1 h. After washing the cells were allowed to bind to fibrinogen-coated wells in the presence of C(1–8;3–9) or RGD-4C or both peptides at the concentrations indicated. After a 30-min incubation the bound cells were determined. The results are the mean ±SD of triplicate wells and were similar in two other experiments. At some data points the SD values are too small to be seen.
as §2, with “0.25%.” for “0.25%. The wells were saturated with 5% BSA and then washed five times with PBS. Prior to adhesion assays, cells were treated with 50 nM 40-Phorbol 12,13-dibutyrate or with 200 μM P1 peptide (Kotovuori et al., 1999) in serum-free medium for 30 min at room temperature to activate the integrins.”

[7] = system: T cells binding to Eahy926 endothelial cells (ICAM-1); assay: T cell binding to TNF-α-stimulated endothelial cell monolayer; type: cell-based; conditions: peptide 50 μM, 45 min
Procedure: In FIG. 4(B), T cells were allowed to bind to TNF-α-stimulated Eahy endothelial cell monolayers that were grown on microtiter wells. LLG-C4 or RGD-4C was included at a concentration of 50 μM. After a 45 min incubation, the unbound cells were removed by immersing the microtiter plate in a PBS solution, and the bound T cells were determined by the phosphatase assay. The data are the mean ±SD of triplicate wells.
To study T cell binding to an endothelial cell monolayer, Eahy926 endothelial cells were plated on microtiter plates at a density of 5×10^4 cells per well and grown for three days. To stimulate the production of ICAM-1, the cells were further grown for 16 h in the presence of TNF-α at a concentration of 10 ng/ml. T cells (1.5×10^5 per well) were allowed to bind to Eahy926 cells first for 30 min at 4° C., then 15 min at 37° C. The unbound T cells were removed by immersing the microtiter plate up side down in PBS. The bound cells were determined by the phosphatase assay.

THP-1 cells [8] = assay: THP-1 cell adhesion on wells coated with synthetic peptides; type: cell-based
Procedure: In FIG. 2(C), the C(1–8;3–9) and C(1–9;3–8) peptides were coated on microtiter wells by incubating overnight at a concentration of 40 μg/ml in TBS in the absence or presence of glutaraldehyde. Free binding sites on plastic were then blocked with 5% BSA. THP-1 cells ([…]) were allowed to bind for 60 min at 37° C. […] The experiment was repeated twice.
as §2

THP-1 cells [9] = assay: Transwell cell migration assay, fibrinogen-coated filters; type: cell-based; conditions: peptide 200 μM, 10% serum, 18 h
Procedure: In FIG. 6(C), Transwell filters were coated both on the upper and lower surface with fibrinogen, or left uncoated, and then saturated with BSA. TBP-1 cells (5×10^4 per filter) were plated on the upper surface of the filter in 10% serum-containing medium. The concentrations of C(1–8;3–9) and C(1–9;3–8) were 200 μM. Following a 18 hour-culture, the cells migrated underneath the filter were determined. The cells were fixed, stained, and then counted under a microscope.
The in vitro migration of THP-1 cells was studied in closely physiological conditions containing 10% serum to not interfere with adhesive properties of cells. Both the upper and lower surfaces of 8 μm pore size Transwell filters were coated with fibrinogen, LLG-C4-GST, or GST at a concentration of 40 μg/ml overnight at 4° C. Free binding sites were blocked by incubation with 5% BSA/TBS. THP-1 cells (5×10^4 in 100 μl) were plated on the upper compartment in 10% FCS-containing medium. The C(1–8;3–9) or C(1–9;3–8) peptide were included at a concentration of 200 μM. The lower compartment was filled with 750 μl of 10% FCS-containing medium. Following a culture for 18 h at 37° C. the filters were immersed in methanol for 15 min, in water for 10 s, and in 0.1% toluidine blue for 5 min. […] Cells were removed from the upper surface of the filter with a cotton swap, and cells migrated on the lower surface were counted microscopically. […]

CC(C)C[C@@H]1NC(=O)[C@H](CC(C)C)NC(=O)[C@H](Cc2ccccc2)NC(=O)[C@@H]2CSSC[C@@H](C(=O)O)NC(=O)[C@H](CSSC[C@H](N)C(=O)N3CCC[C@H]3C(=O)N2)NC(=O)CNC1=O [C(1–8;3–9), CPCFLLGCC] (H-CPCFLLGCC-OH; disulfide 1-8, 3-9; N-terminus and C-terminus assumed)
IC50 ([1]; read-out: IC50, inhibition of THP-1 cell adhesion on LLG-C4-GST, 60 min at 37° C.): 20 µM | IC50 [2]: ~200 µM | water solubility [3]: poorer water solubility | IC50 ([4]; ICAM-1-Fc directly coated or captured via protein A, read-out: IC50, inhibition of Jurkat cell adhesion to ICAM-1-Fc): ~80 µM | IC50 [5]: ~20 µM

ACDCRGDCFCG [RGD-4C, RGD-containing peptide, ligand of several β1 and β3 integrins, reference compound]
inhibition of THP-1 adhesion on fibrinogen after peptide pre-stimulation ([6]; cells pre-stimulated with phorbol ester (50 nM) and RGD-4C and C(1–8;3–9) each 2.5 μM, 30-min incubation): more effectively than C(1–8;3–9) | effect on T cell binding to TNF-α-stimulated endothelial cells [7]: no effect

CPCFLLGCC [C(1–9;3–8), LLG-C4 conformer with disulfide bridges C1–C9 and C3–C8]
fold less active than C(1–8;3–9), THP-1 adhesion on LLG-C4-GST [1]: 20 fold | inhibition of THP-1 adhesion to fibrinogen ([6]; phorbol ester-stimulated THP-1, 60 min): no effect | THP-1 cell binding to coated peptide crosslinked with glutaraldehyde (THP-1 cells [8]; peptide coated at 40 μg/ml in presence of glutaraldehyde): gave no cell binding | THP-1 cell binding to coated peptide (THP-1 cells [8]; peptide coated at 40 μg/ml, without glutaraldehyde): failed to bind | inhibition of Jurkat cell adhesion to ICAM-1-Fc ([4]; compared with C(1–8;3–9)): several fold less active and had hardly any effect | inhibition of THP-1 cell migration through fibrinogen-coated filter (THP-1 cells [9]): inhibited only partially

Source: patent US7205383B2, “Peptide ligands of leukocyte integrins” (Karyon-CTT Ltd., priority 2001, dated 2007)
